From patent US7019108B2, “Method and composition for inhibition of angiogenesis and tumor growth using compounds based on a sequence within MMP-2” (priority 2001, dated 2006)
No end group written: not given here.

Experiments:
Type in all cases: in vivo
B16 melanoma tumor cells = experiment: Chick embryo experimental metastasis model, B16 melanoma; details: 10 μg/embryo inoculated intravenously with the tumor cells, 12 day old chick embryos, 7 day incubation
Procedure: To examine the effects of Pexstatin on melanoma tumor metastasis in vivo, the chick embryo experimental metastasis model was utilized. Briefly, B16 melanoma tumor cells (2.5×10^4) were inoculated intravenously with Pexstatin (10 μg/embryo) or a control peptide in 12 day old chick embryos. In addition, a no treatment control was also added (NT). The Embryos were allowed to incubate for a total of 7 days. At the end of a 7 day incubation period the embryos were sacrificed and the lungs were removed for analysis. The number of melanoma lung lesions were counted for each lobe of the lung. Data bars represent the mean+the standard errors of the metastatic lung lesions from 5 to 10 embryos per condition.

[1] = test system: CS-1 melanoma tumor cells; experiment: CS-1 melanoma tumor growth on the CAM of chick embryos, systemic Pexstatin
Procedure: CS-1 melanoma tumor cells (5×10^6) were inoculated on the Chorioallantoic Membranes (CAMs) of 10 day old chick embryos. Twenty four hours latter the embryos received a single intravenous injection of 50 μg of Pexstatin peptide or PBS control. At the end of a 7 day incubation period the resulting tumors were resected and wet weights determined. Data bars represent the mean±the standard errors of the tumor weight from 5 to 10 embryos per condition.

[2] = test system: βFGF induced angiogenesis; experiment: βFGF induced angiogenesis in the chick CAM assay, systemic Pexstatin; details: 3 day incubation
Procedure: A). Filter discs saturated with βFGF were placed on the CAMs of 10 day old chick embryos. Twenty four hours later, the embryos received a single intravenous injection with 50 μg of Pexstatin, control peptide or PBS. At the end of a 3 day incubation period the filter discs and surrounding CAM tissue were removed and angiogenesis was quantified by counting the number of blood vessel branch points within the area of the filter disc.
B). FIG. 4 illustrates the quantification of the angiogenesis experiment with Pexstatin. Data bars represent the mean+standard errors of 5 to 10 embryos per condition. The angiogenesis index is equal to the number of branch points from experimentally treated embryos minus the number of branch points from CAMs in the absence of βFGF.

[3] = test system: M21 human melanoma tumor cells; experiment: M21 human melanoma tumor growth in nude mice, systemic Pexstatin; details: female nude mice, daily injections of 100 μg
Procedure: M21 human melanoma tumor cells (2×10^6) were injected subcutaneously into female nude mice. Twenty four hours later the mice were treated daily with injections of 100 μg of Pexstatin MMP-2 peptide or PBS controls. Tumor sizes were monitored daily by caliper measurements. Data bars represent the mean tumor volume+the standard errors at each time point. Tumor volumes were estimated using the formula V=L2×W/2, V=volume, L=length, and W=width.

CIFAGDKFWRC (cysteine pairing not given here) [Pexstatin, eleven amino acid peptide based on MMP-2 positions 582–590 flanked by cysteine residues]
inhibition of experimental B16 melanoma metastasis (lung lesions) as compared to controls (B16 melanoma tumor cells): approximately 80% | toxic side effects during the assay period ([1]; chick embryo, single i.v. 50 μg, 7 day incubation): no toxic side effects were noted | inhibition of CS1 melanoma tumor growth (tumor wet weight) as compared to controls ([1]; single intravenous injection of 50 μg, 24 h after inoculation, within 7 days, chick embryo CAM): approximately 60% | toxic side effects in the embryos during the assay period ([2]; chick embryo, single i.v. 50 μg): no toxic side effects were noted | inhibition of βFGF induced angiogenesis (angiogenesis index, branch points) as compared to controls ([2]; single intravenous injection of 50 μg, chick CAM): approximately 90% | toxic side effects during the assay period [3]: no toxic side effects were noted
